From patent publication US10202339B2, “Therapeutic compounds and compositions” (AGIOS PHARMACEUTICALS, INC., priority 2012, dated 2019) come the findings set out here.

This experiment concerns the target IDH1 R132H (Homo sapiens (Human), UniProt O75874, R132H). Nature of the experiment: In vitro assay for IDH1m (R132H) inhibitors, NADPH depletion with resazurin/resorufin detection. The following applies: IDH1 R132H enzyme, 50 minutes at room temperature; read-out: IDH R132H IC50. It counts as biochemical. As for the experimental part: Assays were conducted in a volume of 76 μl assay buffer (150 mM NaCl, 10 mM MgCl2, 20 mM Tris pH 7.5, 0.03% bovine serum albumin) as follows in a standard 384-well plate: To 25 ul of substrate mix (8 uM NADPH, 2 mM aKG), 1 μl of test compound was added in DMSO. The plate was centrifuged briefly, and then 25 μl of enzyme mix was added (0.2 μg/ml IDH1 R132H) followed by a brief centrifugation and shake at 100 RPM. The reaction was incubated for 50 minutes at room temperature, then 25 μl of detection mix (30 μM resazurin, […]) was added and the mixture further incubated for 5 minutes at room temperature. The conversion of resazurin to resorufin was detected by fluorescent spectroscopy at Ex544 Em590 c/o 590.
Representative compounds of formula (I) set forth in Tables 1 and 2 were tested in this assay and the results are set forth below in Table 4.

IDH1 R132H, sequence (O75874 whole entry R132H): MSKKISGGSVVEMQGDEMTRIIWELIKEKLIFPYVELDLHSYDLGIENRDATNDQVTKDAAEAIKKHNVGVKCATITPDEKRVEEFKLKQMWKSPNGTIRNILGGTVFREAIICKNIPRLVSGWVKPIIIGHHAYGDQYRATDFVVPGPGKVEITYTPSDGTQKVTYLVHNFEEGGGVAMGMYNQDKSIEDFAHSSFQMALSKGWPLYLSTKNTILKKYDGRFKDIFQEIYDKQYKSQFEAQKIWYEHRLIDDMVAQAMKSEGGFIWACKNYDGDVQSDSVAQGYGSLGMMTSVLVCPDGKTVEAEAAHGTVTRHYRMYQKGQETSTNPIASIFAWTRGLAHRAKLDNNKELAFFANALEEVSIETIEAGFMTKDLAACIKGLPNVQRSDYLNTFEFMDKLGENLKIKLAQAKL

With `Cc1ccc(NC(=O)Nc2ccc(Cl)cc2)cc1S(=O)(=O)Nc1ccccc1` [Compound 205], the IC50 was in the range of 1 to 10 µM. With `Cc1ccc(NC(=O)Nc2cccc(C(F)(F)F)c2)cc1S(=O)(=O)Nc1ccccc1` [Compound 206, 2-methyl-N-phenyl-5-(3-(3-(trifluoromethyl)phenyl)ureido)benzenesulfonamide], the IC50 lay in the range of 1 to 10 µM. For the compound `Cc1ccc(NC(=O)Nc2ccc(C(F)(F)F)cc2)cc1S(=O)(=O)Nc1ccccc1` [Compound 207, 2-methyl-N-phenyl-5-(3-(4-(trifluoromethyl)phenyl)ureido)benzenesulfonamide], the IC50 is 1 to 10 µM.

In the case of `Cc1ccc(NC(=O)Nc2ccc(OC(F)(F)F)cc2)cc1S(=O)(=O)Nc1ccccc1` [Compound 208], the IC50 lay in the range of 1 to 10 µM. With `Cc1ccc(NC(=O)Nc2ccc(F)c(Cl)c2)cc1S(=O)(=O)Nc1ccccc1` [Compound 209], the IC50 was 1 to 10 µM. In the case of `Cc1cc(C)cc(NC(=O)Nc2ccc(C)c(S(=O)(=O)Nc3ccccc3)c2)c1` [Compound 210], the IC50 was 1 to 10 µM. Turning to `C#Cc1cccc(NC(=O)Nc2ccc(C)c(S(=O)(=O)Nc3ccccc3)c2)c1` [Compound 211], the IC50 fell in the range of 1 to 10 µM. For `Cc1ccc(NC(=O)Nc2cccc(Oc3ccccc3)c2)cc1S(=O)(=O)Nc1ccccc1` [Compound 212], the IC50 was in the range of 1 to 10 µM.

As to `Cc1ccc(NC(=O)Nc2ccccc2)cc1S(=O)(=O)Nc1ccc(Cl)cc1` [Compound 213], the IC50 lay within 1 to 10 µM. As for `Cc1ccc(NC(=O)Nc2ccccc2Cl)cc1S(=O)(=O)Nc1ccc(Cl)cc1` [Compound 214], the IC50 is 1 to 10 µM. In the case of `Cc1ccc(NC(=O)Nc2cccc(Cl)c2)cc1S(=O)(=O)Nc1ccc(Cl)cc1` [Compound 215], the IC50 fell in the range of 1 to 10 µM. Regarding `Cc1ccc(NC(=O)Nc2ccccc2Br)cc1S(=O)(=O)Nc1ccc(Cl)cc1` [Compound 216], the IC50 lay within 1 to 10 µM. On to `Cc1ccc(NC(=O)Nc2ccc(Br)cc2)cc1S(=O)(=O)Nc1ccc(Cl)cc1` [Compound 217], for which the IC50 lay in the range of 1 to 10 µM.

Regarding `Cc1ccc(NC(=O)Nc2ccccc2F)cc1S(=O)(=O)Nc1ccc(Cl)cc1` [Compound 218], the IC50 is 1 to 10 µM.

For the compound `Cc1ccc(NC(=O)Nc2ccc(F)cc2)cc1S(=O)(=O)Nc1ccc(Cl)cc1` [Compound 219], the IC50 is 1 to 10 µM.

With `Cc1ccc(NC(=O)Nc2ccc(I)cc2)cc1S(=O)(=O)Nc1ccc(Cl)cc1` [Compound 220], the IC50 lay in the range of 1 to 10 µM. For the compound `Cc1ccc(NC(=O)Nc2cccc(C(F)(F)F)c2)cc1S(=O)(=O)Nc1ccc(Cl)cc1` [Compound 221, N-(4-chlorophenyl)-2-methyl-5-(3-(3(trifluoromethyl)phenyl)ureido)benzenesulfonamide], the IC50 was in the range of 1 to 10 µM. Consider `Cc1ccc(NC(=O)Nc2ccc(C(F)(F)F)cc2)cc1S(=O)(=O)Nc1ccc(Cl)cc1` [Compound 222, N-(4-chlorophenyl)-2-methyl-5-(3-(4-(trifluoromethyl)phenyl)ureido)benzenesulfonamide], for which the IC50 fell in the range of 1 to 10 µM.

Regarding `Cc1ccc(NC(=O)Nc2ccccc2OC(F)(F)F)cc1S(=O)(=O)Nc1ccc(Cl)cc1` [Compound 224], the IC50 lay within 1 to 10 µM. As for `Cc1ccc(NC(=O)Nc2ccc(OC(F)(F)F)cc2)cc1S(=O)(=O)Nc1ccc(Cl)cc1` [Compound 225, N-(4-chlorophenyl)-2-methyl-5-(3-(4-(trifluoromethoxy)phenyl)ureido)benzenesulfonamide], the IC50 lay within 1 to 10 µM. On to `Cc1ccc(NC(=O)Nc2ccc(Br)cc2Cl)cc1S(=O)(=O)Nc1ccc(Cl)cc1` [Compound 227], for which the IC50 lay in the range of 1 to 10 µM.

As for `Cc1ccc(NC(=O)Nc2ccc(F)c(Cl)c2)cc1S(=O)(=O)Nc1ccc(Cl)cc1` [Compound 228], the IC50 lay within 1 to 10 µM. Consider `Cc1ccc(NC(=O)Nc2ccc(F)cc2F)cc1S(=O)(=O)Nc1ccc(Cl)cc1` [Compound 229], for which the IC50 lay within 1 to 10 µM.

Consider `Cc1ccc(NC(=O)Nc2ccc(F)c(F)c2)cc1S(=O)(=O)Nc1ccc(Cl)cc1` [Compound 230], for which the half-maximal inhibitory concentration (IC50) is 1 to 10 µM. Regarding `Cc1ccc(NC(=O)Nc2ccc(C(F)(F)F)cc2Cl)cc1S(=O)(=O)Nc1ccc(Cl)cc1` [Compound 231], the IC50 was 1 to 10 µM. Consider `Cc1ccc(NC(=O)Nc2ccc(Br)cc2OC(F)(F)F)cc1S(=O)(=O)Nc1ccc(Cl)cc1` [Compound 232], for which the IC50 lay within 1 to 10 µM. Regarding `Cc1ccc(NC(=O)Nc2cc(C(F)(F)F)ccc2F)cc1S(=O)(=O)Nc1ccc(Cl)cc1` [Compound 233], the concentration for half-maximal inhibition (IC50) was in the range of 1 to 10 µM. As to `Cc1ccc(NC(=O)Nc2c(C)cccc2Cl)cc1S(=O)(=O)Nc1ccc(Cl)cc1` [Compound 234], the IC50 lay in the range of 1 to 10 µM. As for `Cc1ccc(NC(=O)Nc2ccc(C)c(S(=O)(=O)Nc3ccc(Cl)cc3)c2)cc1Cl` [Compound 235], the IC50 lay within 1 to 10 µM. Turning to `Cc1cc(Cl)ccc1NC(=O)Nc1ccc(C)c(S(=O)(=O)Nc2ccc(Cl)cc2)c1` [Compound 236], the IC50 lay within 1 to 10 µM.

Consider `Cc1cc(NC(=O)Nc2ccc(C)c(S(=O)(=O)Nc3ccc(Cl)cc3)c2)ccc1Br` [Compound 237], for which the IC50 was in the range of 1 to 10 µM. Next, `Cc1cc(Br)ccc1NC(=O)Nc1ccc(C)c(S(=O)(=O)Nc2ccc(Cl)cc2)c1` [Compound 238]: 1 to 10 µM. As for `Cc1ccc(NC(=O)Nc2c(C)cc(Br)cc2C)cc1S(=O)(=O)Nc1ccc(Cl)cc1` [Compound 239], the 50% inhibitory concentration (IC50) lay in the range of 1 to 10 µM. On to `Cc1ccc(F)c(NC(=O)Nc2ccc(C)c(S(=O)(=O)Nc3ccc(Cl)cc3)c2)c1` [Compound 240], for which the IC50 was 1 to 10 µM.

As for `Cc1ccc(F)cc1NC(=O)Nc1ccc(C)c(S(=O)(=O)Nc2ccc(Cl)cc2)c1` [Compound 241], the IC50 was 1 to 10 µM. For `Cc1ccc(NC(=O)Nc2ccc(Cl)c([N+](=O)[O-])c2)cc1S(=O)(=O)Nc1ccc(Cl)cc1` [Compound 242], the half-maximal inhibitory concentration (IC50) lay in the range of 1 to 10 µM.

Turning to `Cc1ccc(NC(=O)Nc2cc(Cl)ccc2[N+](=O)[O-])cc1S(=O)(=O)Nc1ccc(Cl)cc1` [Compound 243], the IC50 was in the range of 1 to 10 µM.

As to `Cc1ccc(NC(=O)Nc2ccc([N+](=O)[O-])cc2Cl)cc1S(=O)(=O)Nc1ccc(Cl)cc1` [Compound 244], the IC50 lay in the range of 1 to 10 µM.

Consider `Cc1ccc(NC(=O)Nc2ccc(F)cc2[N+](=O)[O-])cc1S(=O)(=O)Nc1ccc(Cl)cc1` [Compound 245], for which the IC50 is 1 to 10 µM. On to `Cc1ccc(NC(=O)Nc2cc(Cl)c(Cl)cc2Cl)cc1S(=O)(=O)Nc1ccc(Cl)cc1` [Compound 246], for which the concentration for half-maximal inhibition (IC50) fell in the range of 1 to 10 µM.

On to `Cc1ccc(NC(=O)Nc2c(Cl)cc(F)cc2Br)cc1S(=O)(=O)Nc1ccc(Cl)cc1` [Compound 247], for which the IC50 lay in the range of 1 to 10 µM. Turning to `Cc1ccc(NC(=O)Nc2ccc(F)c(F)c2F)cc1S(=O)(=O)Nc1ccc(Cl)cc1` [Compound 248], the half-inhibitory concentration (IC50) lay in the range of 1 to 10 µM.

In the case of `Cc1cccc(NC(=O)Nc2ccc(C)c(S(=O)(=O)Nc3ccc(Cl)cc3)c2)c1` [Compound 249], the IC50 lay within 1 to 10 µM. Take `CCc1ccccc1NC(=O)Nc1ccc(C)c(S(=O)(=O)Nc2ccc(Cl)cc2)c1` [Compound 250]: the concentration for half-maximal inhibition (IC50) lay in the range of 1 to 10 µM. `CCc1cccc(NC(=O)Nc2ccc(C)c(S(=O)(=O)Nc3ccc(Cl)cc3)c2)c1` [Compound 251]: the IC50 fell in the range of 1 to 10 µM. Next, `CCc1ccc(NC(=O)Nc2ccc(C)c(S(=O)(=O)Nc3ccc(Cl)cc3)c2)cc1` [Compound 252]: 1 to 10 µM. For the compound `CCCCc1ccc(NC(=O)Nc2ccc(C)c(S(=O)(=O)Nc3ccc(Cl)cc3)c2)cc1` [Compound 253], the IC50 was in the range of 1 to 10 µM. Regarding `Cc1ccc(NC(=O)Nc2ccc(C(C)C)cc2)cc1S(=O)(=O)Nc1ccc(Cl)cc1` [Compound 254], the IC50 was 1 to 10 µM. Next, `Cc1ccc(NC(=O)Nc2ccccc2C(C)(C)C)cc1S(=O)(=O)Nc1ccc(Cl)cc1` [Compound 255]: 1 to 10 µM; `Cc1ccc(NC(=O)Nc2ccc(C(C)(C)C)cc2)cc1S(=O)(=O)Nc1ccc(Cl)cc1` [Compound 256]: 1 to 10 µM; `Cc1ccc(NC(=O)Nc2c(C)cccc2C)cc1S(=O)(=O)Nc1ccc(Cl)cc1` [Compound 257]: 1 to 10 µM. As to `Cc1ccc(NC(=O)Nc2cccc(C)c2C)cc1S(=O)(=O)Nc1ccc(Cl)cc1` [Compound 258], the IC50 lay in the range of 1 to 10 µM.

Consider `Cc1ccc(NC(=O)Nc2ccc(C)c(S(=O)(=O)Nc3ccc(Cl)cc3)c2)cc1C` [Compound 259], for which the IC50 was 1 to 10 µM.

On to `Cc1cc(C)cc(NC(=O)Nc2ccc(C)c(S(=O)(=O)Nc3ccc(Cl)cc3)c2)c1` [Compound 260], for which the IC50 was in the range of 1 to 10 µM.

`CCc1cccc(CC)c1NC(=O)Nc1ccc(C)c(S(=O)(=O)Nc2ccc(Cl)cc2)c1` [Compound 261]: the IC50 lay within 1 to 10 µM. In the case of `Cc1cc([N+](=O)[O-])ccc1NC(=O)Nc1ccc(C)c(S(=O)(=O)Nc2ccc(Cl)cc2)c1` [Compound 262], the IC50 is 1 to 10 µM. In the case of `Cc1ccc(NC(=O)Nc2ccc(C)c(S(=O)(=O)Nc3ccc(Cl)cc3)c2)cc1[N+](=O)[O-]` [Compound 263], the IC50 lay within 1 to 10 µM.

As for `Cc1ccc(NC(=O)Nc2cccc([N+](=O)[O-])c2C)cc1S(=O)(=O)Nc1ccc(Cl)cc1` [Compound 264], the IC50 was in the range of 1 to 10 µM. `COc1ccccc1NC(=O)Nc1ccc(C)c(S(=O)(=O)Nc2ccc(Cl)cc2)c1` [Compound 265]: the IC50 is 1 to 10 µM. With `COc1cccc(NC(=O)Nc2ccc(C)c(S(=O)(=O)Nc3ccc(Cl)cc3)c2)c1` [Compound 266], the IC50 was 1 to 10 µM. For the compound `COc1ccc(NC(=O)Nc2ccc(C)c(S(=O)(=O)Nc3ccc(Cl)cc3)c2)cc1` [Compound 267], the IC50 was in the range of 1 to 10 µM. For the compound `COc1ccc(OC)c(NC(=O)Nc2ccc(C)c(S(=O)(=O)Nc3ccc(Cl)cc3)c2)c1` [Compound 268], the concentration for half-maximal inhibition (IC50) lay within 1 to 10 µM.

A word on the IC50: it is the point on the concentration scale where inhibition reaches its midpoint.
